Laboratory results published in article PMC10855164, “Ligand-Based Design of Selective Peptidomimetic uPA and TMPRSS2 Inhibitors with Arg Bioisosteres” (International Journal of Molecular Sciences, 2024).

Assays:
Assay type in all cases: biochemical
TMPRSS2 = target: T1, TMPRSS2 (Homo sapiens, UniProt O15393); assay: fluorometric enzyme inhibition assay, TMPRSS2 (Boc-Gln-Ala-Arg-AMC); settings: for Ki: from IC50 by Cheng-Prusoff, n.a. = not active, <80% inhibition at 20 µM
T1 construct: purchased Cusabio
Protocol: (§1) The inhibitory activity of the synthesized compounds towards the respective main- and off-target proteases was measured via fluorometric and colorimetric assays. Thus, fluorogenic AMC- or colorimetric pNA-based substrates with a peptide sequence suitable for the tested protease were utilized (see Supplementary Figure S2). At first, the compounds were screened against […] proteases (uPA, TMPRSS2, matriptase, tPA, thrombin, factor Xa) at 20 µM, and a cut-off value of 80% inhibition at this concentration was set, for the differentiation between nonactive (n.a.) and active inhibitors. Due to the reversible inhibition mechanism of the ketobenzothiazole derivates, the IC50 values were determined with Graphpad Prism 9, and afterwards converted to the corresponding Ki values for an adequate comparison between the inhibitory activities of the compounds toward all tested proteases. The Ki values were calculated using the Cheng–Prusoff equation [43].
(§2) Fluorometric inhibition assays
(§3) The inhibitory activities of the compounds against the proteases were determined by enzyme inhibition assays with fluorogenic or colorimetry-based substrates. The fluorescence, caused by cleaved AMC from the fluorogenic substrates (uPA, matriptase, TMPRSS2, thrombin), was measured in white flat-bottom 96-well plates from Greiner Bio-One using a Tecan Infinite F200 Pro plate reader. The absorption, caused by cleaved pNA from colorimetric substrates (factor Xa and tPA), was measured in transparent flat-bottom 96-well plates from Greiner Bio-One using a Tecan Spark 10M plate reader. All measurements with the main-target proteases (uPA and TMRPSS2) were performed as triplicates and with the off-target proteases (matriptase, factor Xa, tPA, thrombin) as duplicates. The substrates and the compounds were prepared as stock solutions in DMSO. Each well contained a total volume of 200 µL, consisting of 185 µL buffer, 5 µL inhibitor in DMSO or pure DMSO as negative control, 5 µL substrate in DMSO and 5 µL enzyme solution in buffer. Dilution series were prepared for the determination of the inhibition constants. The fluorescence signal and absorbance were measured every 30 s for 10 min at 25 or 37 °C with the corresponding excitation/emission (λex = 380 nm / λem = 460 nm) and absorbance (λabs = 405 nm) wavelengths, depending on the targeted protease. IC50 values for the reversible inhibitors were calculated with Graphpad Prism 9 by fitting the remaining enzymatic activity to the four parameter IC50 equation with Y [%] as the residual enzyme activity , Ymax as the maximum value of the dose response curve at inhibitor concentrations [I] = 0 µM, Ymin as the minimum value at high inhibitor concentrations and s as the hill coefficient.[1] The fluorescence progress curves and sigmoidal dose-response curve for inhibition of uPa by compound 38 is shown exemplary in Figure S2. […]
(§4) Due to the dependence of the IC50 value on the substrate affinity and concentration, the Ki values were calculated with the Cheng-Prusoff equation, using the final substrate concentration [S] and the Michaelis-Menten constant KM, (2) for appropriate comparison of the inhibitory activities to the other enzymes and inhibitors.[1]
(§5) KM values were determined by fitting to the Michaelis-Menten equation using Graphpad Prism 9 with v [ΔF/min] as the substrate hydrolysis rate, vmax as the maximum slope of the dose-response curve, and the substrate [S] concentration.[1] The different substrates were serially diluted in DMSO. The measurement was done in analogy to the determination of the inhibitory activity, but with 5 µL pure DMSO instead of inhibitor solution. […]
(§6) The following buffers and substrates were used for the respective assays: uPA (50 mM Tris HCl pH = 7.9, 150 mM […]
(§7) TMPRSS2 (25 mM Tris HCl pH = 8.0, 150 mM NaCl, 5 mM CaCl2, 0.001% TX-100, 100 µM Boc-Gln-Ala-Arg-AMC (KM: 68.63 ± 6.64 µM), 25 °C, 3 nM TMPRSS2)[3]; matriptase (50 mM Tris HCl pH = 8.0, 150 mM NaCl, 5 mM CaCl2, […]

matriptase = target: T2, matriptase (Homo sapiens, UniProt Q9Y5Y6); assay: fluorometric enzyme inhibition assay, matriptase (Boc-Leu-Arg-Arg-AMC); settings: for Ki: from IC50 by Cheng-Prusoff, n.a. = not active, <80% inhibition at 20 µM
T2 construct: catalytic domain of matriptase (uniport: Q9Y5Y6 aa 596–855); hexa-histidine (N); made in house; host or cells: Escherichia coli BL21 Gold (DE3)
T2 sequence (Q9Y5Y6 596-855): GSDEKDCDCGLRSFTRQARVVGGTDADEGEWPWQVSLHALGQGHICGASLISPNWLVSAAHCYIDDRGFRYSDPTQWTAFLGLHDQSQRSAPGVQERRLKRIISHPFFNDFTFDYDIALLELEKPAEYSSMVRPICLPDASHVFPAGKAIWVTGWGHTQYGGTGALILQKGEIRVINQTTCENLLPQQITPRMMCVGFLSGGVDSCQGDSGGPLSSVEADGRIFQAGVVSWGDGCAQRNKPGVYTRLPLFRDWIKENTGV
Protocol: as §1, §2, §3, §4, §5, §6, §7

tPA = target: T3, tPA (Homo sapiens, UniProt P00750); assay: colorimetric enzyme inhibition assay, tPA (N-methylsulfonyl-D-Phe-Gly-Arg-pNA); settings: from IC50 by Cheng-Prusoff; n.a. = not active, <80% inhibition at 20 µM
T3 construct: purchased Sigma Aldrich
Protocol: as §1, §2, §3, §4
KM values were determined by fitting to the Michaelis-Menten equation using Graphpad Prism 9 with v [ΔF/min] as the substrate hydrolysis rate, vmax as the maximum slope of the dose-response curve, and the substrate [S] concentration.[1] The different substrates were serially diluted in DMSO. […]

thrombin = target: T4, thrombin (Homo sapiens, UniProt P00734); assay: fluorometric enzyme inhibition assay, thrombin (Z-Gly-Gly-Arg-AMC); settings: from IC50 by Cheng-Prusoff; n.a. = not active, <80% inhibition at 20 µM
T4 construct: purchased Bio-techne
Protocol: as §1, §2, §3, §4, §5, §6, §7

factor Xa = target: T5, factor Xa (Homo sapiens, UniProt P00742); assay: colorimetric enzyme inhibition assay, factor Xa (Z-D-Arg-Gly-Arg-pNA); settings: from IC50 by Cheng-Prusoff; n.a. = not active, <80% inhibition at 20 µM
T5 construct: purchased Bio-techne
Protocol: as §1, §2, §3, §4, §5, §6, §7

T1 sequence (O15393 whole entry): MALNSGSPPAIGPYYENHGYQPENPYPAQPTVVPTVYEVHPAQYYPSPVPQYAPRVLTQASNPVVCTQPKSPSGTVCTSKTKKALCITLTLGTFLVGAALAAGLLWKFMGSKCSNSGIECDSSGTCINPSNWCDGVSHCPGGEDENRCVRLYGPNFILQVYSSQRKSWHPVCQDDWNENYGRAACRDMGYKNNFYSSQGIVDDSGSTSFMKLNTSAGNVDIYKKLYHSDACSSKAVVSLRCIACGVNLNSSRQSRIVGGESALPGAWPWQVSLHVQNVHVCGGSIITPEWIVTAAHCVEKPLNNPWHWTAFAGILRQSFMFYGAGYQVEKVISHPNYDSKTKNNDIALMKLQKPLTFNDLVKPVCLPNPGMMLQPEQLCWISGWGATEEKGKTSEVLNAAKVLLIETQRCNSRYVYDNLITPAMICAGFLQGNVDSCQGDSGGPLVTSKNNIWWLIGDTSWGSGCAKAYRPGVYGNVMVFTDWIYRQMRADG
T5 sequence (P00742 235-488 limits assumed): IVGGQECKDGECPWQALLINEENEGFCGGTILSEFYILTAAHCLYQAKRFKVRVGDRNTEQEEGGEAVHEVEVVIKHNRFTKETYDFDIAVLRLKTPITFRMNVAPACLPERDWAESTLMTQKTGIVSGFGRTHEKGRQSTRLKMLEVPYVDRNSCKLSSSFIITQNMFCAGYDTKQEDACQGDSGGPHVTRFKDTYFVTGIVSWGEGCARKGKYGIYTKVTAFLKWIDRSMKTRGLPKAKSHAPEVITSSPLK
T5 sequence (P00742 41-179 partner limits assumed): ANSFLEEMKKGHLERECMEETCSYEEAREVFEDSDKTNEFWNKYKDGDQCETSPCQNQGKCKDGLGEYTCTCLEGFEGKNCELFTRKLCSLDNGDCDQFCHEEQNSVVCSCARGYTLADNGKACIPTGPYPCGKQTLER
T3 sequence (P00750 36-562): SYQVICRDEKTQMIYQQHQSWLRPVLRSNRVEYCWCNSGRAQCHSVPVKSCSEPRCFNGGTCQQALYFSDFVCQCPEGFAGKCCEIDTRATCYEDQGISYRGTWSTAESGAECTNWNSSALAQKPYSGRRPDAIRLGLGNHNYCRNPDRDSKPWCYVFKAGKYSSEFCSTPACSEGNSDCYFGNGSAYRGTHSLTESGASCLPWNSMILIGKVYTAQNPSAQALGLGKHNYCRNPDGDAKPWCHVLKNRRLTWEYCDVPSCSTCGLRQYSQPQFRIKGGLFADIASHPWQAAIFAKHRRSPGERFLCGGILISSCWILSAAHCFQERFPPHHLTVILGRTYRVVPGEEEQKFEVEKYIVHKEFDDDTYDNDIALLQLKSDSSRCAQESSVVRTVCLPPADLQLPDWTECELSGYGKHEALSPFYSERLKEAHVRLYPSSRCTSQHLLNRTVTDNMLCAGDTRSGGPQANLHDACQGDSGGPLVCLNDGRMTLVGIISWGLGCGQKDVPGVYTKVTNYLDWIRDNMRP

Selectivity index [SI] Matriptase (matriptase; quotient Ki matriptase / Ki TMPRSS2) | SMILES | Ki (TMPRSS2) | Ki (matriptase) | Selectivity index [SI] TMPRSS2 (TMPRSS2; quotient Ki TMPRSS2 / Ki uPA) | Selectivity index [SI] Matriptase (matriptase; quotient Ki matriptase / Ki uPA) | Ki tPA (tPA) | Ki Thrombin (thrombin) | Ki Factor Xa (factor Xa)
289 | CC(=O)N[C@@H](Cc1ccccc1)C(=O)N[C@@H](Cc1ccc(NC(=N)N)cc1)C(=O)c1nc2ccccc2s1 [Compound 33] | 5 ± 2 nM | 1440 ± 90 nM | – | – | – | – | –
– | CC(=O)NCC(=O)NC(C(=O)NC(C)C(=O)NC(CC1CCC(NC(=N)N)CC1)C(=O)c1nc2ccccc2s1)C(C)O (stereo not shown) [Compound 38] | 73 ± 16 nM | 626 ± 74 nM | 1.8 | 16 | did not inhibit | did not inhibit | did not inhibit
